Measurements as given in ChEMBL document CHEMBL1201862, “PubChem BioAssay data set” (2004).
The source made the active and inactive calls.

What was measured:
Hexokinase HKDC1 = target: T1, Hexokinase HKDC1 (Homo sapiens, UniProt Q2TB90); assay: inhibition of HKDC1 glucose phosphorylation – biochemical, W721R variant, dose response (AID 504729); type: functional
T1 sequence (Q2TB90 whole entry): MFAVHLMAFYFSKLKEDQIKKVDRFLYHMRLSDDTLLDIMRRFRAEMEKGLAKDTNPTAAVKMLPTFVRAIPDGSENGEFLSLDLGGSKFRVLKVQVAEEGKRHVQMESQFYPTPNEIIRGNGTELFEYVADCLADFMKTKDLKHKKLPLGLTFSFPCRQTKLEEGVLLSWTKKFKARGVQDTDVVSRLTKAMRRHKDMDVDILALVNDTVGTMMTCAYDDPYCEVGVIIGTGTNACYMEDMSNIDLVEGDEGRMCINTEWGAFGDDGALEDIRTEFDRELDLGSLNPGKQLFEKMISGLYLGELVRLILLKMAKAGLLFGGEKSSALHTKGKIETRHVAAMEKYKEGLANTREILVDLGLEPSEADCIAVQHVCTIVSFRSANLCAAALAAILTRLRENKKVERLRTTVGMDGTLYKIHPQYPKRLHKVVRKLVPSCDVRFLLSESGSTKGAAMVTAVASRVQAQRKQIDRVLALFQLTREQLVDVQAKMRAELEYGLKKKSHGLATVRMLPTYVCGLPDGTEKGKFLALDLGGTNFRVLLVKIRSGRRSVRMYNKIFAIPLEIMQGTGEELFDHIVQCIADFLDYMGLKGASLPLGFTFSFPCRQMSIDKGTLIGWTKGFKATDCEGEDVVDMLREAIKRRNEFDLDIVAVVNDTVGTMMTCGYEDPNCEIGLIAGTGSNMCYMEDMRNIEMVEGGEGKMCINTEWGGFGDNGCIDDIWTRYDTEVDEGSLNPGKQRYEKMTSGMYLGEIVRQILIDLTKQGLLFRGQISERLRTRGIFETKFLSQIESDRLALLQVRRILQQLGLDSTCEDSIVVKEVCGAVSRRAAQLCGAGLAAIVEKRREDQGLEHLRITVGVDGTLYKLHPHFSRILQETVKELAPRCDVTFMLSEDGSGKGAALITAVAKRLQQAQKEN

ELAV-like protein 1 = ELAV-like protein 1 (Homo sapiens, UniProt Q15717); assay: Identify HuR specific inhibitors.; type: functional
[1] = Luminescence-based cell-based high throughput dose response assay to identify activators of the DAF-12 from the parasite S. stercoralis (ssDAF-12).; type: functional
[2] = target: Oxysterols receptor LXR-beta (Homo sapiens, UniProt P55055); assay: LXR agonists, Gal4 luciferase reporter, dose response, counter-screen for ssDAF-12 agonist project, cell-based, luminescence, HEK293, S. stercoralis campaign (AID 720737); type: functional; conditions: read-out: IC50 (the source's name)
[3] = target: E3 ubiquitin-protein ligase UHRF1 (Homo sapiens, UniProt Q96T88); assay: Counterscreen for inhibitors of 5-meCpG-binding domain protein 2 (MBD2): TRFRET-based biochemical high throughput dose response assay to identify inhibitors of binding of ubiquitin-like with PHD and ring finger domains 1 (UHRF1) to methylated oligonucleotide.
Phospholipase D2 = Phospholipase D2 (Homo sapiens, UniProt O14939); assay: PLD2 Cellular Concentration Response Study.; type: functional
Phospholipase D1 = target: T2, Phospholipase D1 (Homo sapiens, UniProt Q13393); assay: PLD1 Cellular Concentration Response Study.; type: functional
T2 sequence (Q13393 whole entry): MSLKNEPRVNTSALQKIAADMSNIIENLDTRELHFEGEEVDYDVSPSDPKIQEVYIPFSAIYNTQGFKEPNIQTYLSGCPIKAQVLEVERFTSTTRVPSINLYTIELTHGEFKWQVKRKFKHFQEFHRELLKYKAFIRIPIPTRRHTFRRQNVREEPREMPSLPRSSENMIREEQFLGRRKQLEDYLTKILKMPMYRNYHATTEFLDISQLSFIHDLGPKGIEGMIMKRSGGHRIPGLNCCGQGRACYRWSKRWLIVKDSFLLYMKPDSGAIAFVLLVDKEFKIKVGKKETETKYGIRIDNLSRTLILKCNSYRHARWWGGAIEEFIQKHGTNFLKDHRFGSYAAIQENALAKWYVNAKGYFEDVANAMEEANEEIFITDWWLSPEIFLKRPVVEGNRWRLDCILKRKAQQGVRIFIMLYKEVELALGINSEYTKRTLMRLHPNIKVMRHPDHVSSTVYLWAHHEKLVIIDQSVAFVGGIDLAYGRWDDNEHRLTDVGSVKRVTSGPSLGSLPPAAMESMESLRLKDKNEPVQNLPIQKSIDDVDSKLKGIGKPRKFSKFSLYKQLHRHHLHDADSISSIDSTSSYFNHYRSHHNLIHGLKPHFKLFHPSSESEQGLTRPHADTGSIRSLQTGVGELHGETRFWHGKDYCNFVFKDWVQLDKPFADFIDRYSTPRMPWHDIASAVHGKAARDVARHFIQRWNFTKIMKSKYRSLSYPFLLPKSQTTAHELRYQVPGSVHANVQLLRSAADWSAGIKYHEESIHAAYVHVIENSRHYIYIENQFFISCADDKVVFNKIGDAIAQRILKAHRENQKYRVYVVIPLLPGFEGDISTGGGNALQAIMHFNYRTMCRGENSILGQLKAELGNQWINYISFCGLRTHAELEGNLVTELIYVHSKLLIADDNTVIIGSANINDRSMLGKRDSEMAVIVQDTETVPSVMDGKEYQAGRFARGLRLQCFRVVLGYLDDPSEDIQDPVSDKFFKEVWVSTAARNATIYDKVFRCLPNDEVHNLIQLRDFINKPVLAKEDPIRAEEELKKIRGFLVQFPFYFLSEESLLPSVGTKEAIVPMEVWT

[4] = target: G-protein coupled receptor 183 (Homo sapiens, UniProt P32249); assay: SAR confirmation of small molecule antagonists of the EBI2 receptor via a luminescent beta-arrestin assa.; type: functional
cells = conditions: HEK293
[5] = CellTiter-Glo luminescence survival assay, SW480 colon tumor line, concentration-response curve, half-maximal inhibitory concentration (AID 1117338); type: functional
[6] = SNU-C1 cell viability reduction, dose response, CellTiter-Glo luminescence (AID 1117323); type: functional, cell-based
[7] = Reduced DLD-1 viability, concentration-response, CellTiter-Glo luminescence (AID 1117352); type: functional
[8] = rise of 2N DNA cells, HeLa – IC50, dose response (AID 1117349); type: functional, cell-based
[9] = HCT116 cell viability decrease, GSK3B pretreatment – CellTiter-Glo, IC50, dose response (AID 1117339); type: functional; conditions: HCT-116
[10] = cytotoxicity toward HCT116 cells – cell-based, CellTiter-Glo luminescence, IC50, dose response (AID 1117332); type: functional; conditions: HCT-116
[11] = rise of 4N DNA cells, HeLa – IC50, dose response (AID 1117351); type: functional, cell-based
[12] = RKO cell viability reduction, dose response, CellTiter-Glo luminescence (AID 1117322); type: functional
[13] = cytotoxicity toward Colo320 cells – cell-based, CellTiter-Glo luminescence, IC50, dose response (AID 1117334); type: functional; conditions: COLO 320

Phospholipase D2, sequence (O14939 whole entry): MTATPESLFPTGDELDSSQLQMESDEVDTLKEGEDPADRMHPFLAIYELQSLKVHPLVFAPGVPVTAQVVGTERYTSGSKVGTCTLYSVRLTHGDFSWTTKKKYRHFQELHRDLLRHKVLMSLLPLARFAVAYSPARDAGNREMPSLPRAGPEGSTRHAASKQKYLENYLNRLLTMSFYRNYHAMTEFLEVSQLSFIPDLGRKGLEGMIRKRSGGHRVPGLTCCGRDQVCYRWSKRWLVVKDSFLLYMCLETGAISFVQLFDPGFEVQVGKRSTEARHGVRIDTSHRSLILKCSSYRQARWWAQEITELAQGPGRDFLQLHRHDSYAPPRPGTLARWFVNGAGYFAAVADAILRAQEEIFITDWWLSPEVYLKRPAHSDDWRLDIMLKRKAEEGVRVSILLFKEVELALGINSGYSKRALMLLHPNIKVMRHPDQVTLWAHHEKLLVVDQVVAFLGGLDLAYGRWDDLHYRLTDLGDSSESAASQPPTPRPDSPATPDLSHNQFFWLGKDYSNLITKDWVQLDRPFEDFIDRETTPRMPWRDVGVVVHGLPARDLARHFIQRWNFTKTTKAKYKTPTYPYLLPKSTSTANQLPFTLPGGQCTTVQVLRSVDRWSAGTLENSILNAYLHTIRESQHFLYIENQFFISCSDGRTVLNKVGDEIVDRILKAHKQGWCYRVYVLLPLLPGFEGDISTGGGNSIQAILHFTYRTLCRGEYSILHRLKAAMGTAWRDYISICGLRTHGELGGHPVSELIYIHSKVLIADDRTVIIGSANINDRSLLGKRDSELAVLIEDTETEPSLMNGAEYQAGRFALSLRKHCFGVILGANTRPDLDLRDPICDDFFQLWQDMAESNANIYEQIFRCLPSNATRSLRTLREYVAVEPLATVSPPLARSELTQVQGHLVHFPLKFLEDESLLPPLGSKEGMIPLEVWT
ELAV-like protein 1, sequence (Q15717 whole entry): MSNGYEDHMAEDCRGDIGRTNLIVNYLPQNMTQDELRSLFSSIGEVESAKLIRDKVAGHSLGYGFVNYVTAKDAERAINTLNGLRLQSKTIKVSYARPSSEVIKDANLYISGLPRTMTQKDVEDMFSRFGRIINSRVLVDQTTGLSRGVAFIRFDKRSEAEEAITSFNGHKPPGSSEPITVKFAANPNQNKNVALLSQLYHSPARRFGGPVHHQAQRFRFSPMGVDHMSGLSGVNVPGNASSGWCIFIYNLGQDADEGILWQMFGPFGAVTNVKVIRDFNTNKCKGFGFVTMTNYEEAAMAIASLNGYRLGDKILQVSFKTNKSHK
E3 ubiquitin-protein ligase UHRF1, sequence (Q96T88 whole entry, the tested form may be a part): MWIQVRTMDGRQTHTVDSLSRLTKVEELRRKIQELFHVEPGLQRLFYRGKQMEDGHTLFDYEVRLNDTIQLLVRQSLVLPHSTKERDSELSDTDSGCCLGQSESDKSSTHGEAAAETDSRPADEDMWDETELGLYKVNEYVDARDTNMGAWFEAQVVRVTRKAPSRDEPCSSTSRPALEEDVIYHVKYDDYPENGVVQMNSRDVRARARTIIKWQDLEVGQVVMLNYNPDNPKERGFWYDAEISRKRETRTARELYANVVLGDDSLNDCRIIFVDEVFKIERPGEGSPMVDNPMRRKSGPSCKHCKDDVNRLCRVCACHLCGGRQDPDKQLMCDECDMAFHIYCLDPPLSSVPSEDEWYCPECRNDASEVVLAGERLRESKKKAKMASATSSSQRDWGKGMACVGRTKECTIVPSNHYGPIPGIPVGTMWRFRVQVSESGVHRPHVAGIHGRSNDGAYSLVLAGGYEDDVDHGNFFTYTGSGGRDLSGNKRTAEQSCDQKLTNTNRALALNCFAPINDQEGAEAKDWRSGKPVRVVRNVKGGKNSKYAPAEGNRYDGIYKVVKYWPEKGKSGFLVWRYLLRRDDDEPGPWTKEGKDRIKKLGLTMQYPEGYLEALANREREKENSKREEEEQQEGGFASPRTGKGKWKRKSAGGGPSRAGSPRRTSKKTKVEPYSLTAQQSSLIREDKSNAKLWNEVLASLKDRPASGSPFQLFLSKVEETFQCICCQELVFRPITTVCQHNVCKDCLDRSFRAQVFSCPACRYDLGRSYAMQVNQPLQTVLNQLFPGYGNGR
G-protein coupled receptor 183, sequence (P32249 whole entry): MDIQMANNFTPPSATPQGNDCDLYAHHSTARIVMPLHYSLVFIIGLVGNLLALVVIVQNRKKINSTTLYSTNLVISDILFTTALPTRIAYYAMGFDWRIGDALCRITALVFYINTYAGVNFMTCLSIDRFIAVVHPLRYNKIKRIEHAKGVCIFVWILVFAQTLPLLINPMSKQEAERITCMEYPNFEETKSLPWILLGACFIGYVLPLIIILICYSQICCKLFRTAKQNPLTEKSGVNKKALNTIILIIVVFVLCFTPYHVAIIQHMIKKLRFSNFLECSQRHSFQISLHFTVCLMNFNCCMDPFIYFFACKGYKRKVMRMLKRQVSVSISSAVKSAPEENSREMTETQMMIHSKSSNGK
Oxysterols receptor LXR-beta, sequence (P55055 whole entry, the tested form may be a part): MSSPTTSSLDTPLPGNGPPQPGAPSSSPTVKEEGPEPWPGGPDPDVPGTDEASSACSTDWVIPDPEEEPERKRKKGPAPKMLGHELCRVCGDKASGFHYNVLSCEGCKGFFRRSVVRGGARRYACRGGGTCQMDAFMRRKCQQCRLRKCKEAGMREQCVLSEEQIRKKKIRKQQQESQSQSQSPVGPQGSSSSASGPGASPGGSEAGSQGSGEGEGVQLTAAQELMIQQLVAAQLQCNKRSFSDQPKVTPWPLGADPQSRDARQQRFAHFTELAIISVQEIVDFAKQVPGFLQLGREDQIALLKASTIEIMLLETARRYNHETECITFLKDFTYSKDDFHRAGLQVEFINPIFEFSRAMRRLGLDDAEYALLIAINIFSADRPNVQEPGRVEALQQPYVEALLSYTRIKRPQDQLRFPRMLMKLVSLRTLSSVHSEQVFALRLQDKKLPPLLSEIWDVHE

In the case of `COCC(=O)OC1CCn2c1nc1c2C(=O)C(C)=C(NC(C)=O)C1=O` (stereo not drawn), the IC50 (Hexokinase HKDC1) is reported as 2.18 µM (active) and the IC50 (ELAV-like protein 1) is reported as 17.4 µM (inactive).

In the case of `CCc1ccc(-c2csc3ncn(CC)c(=O)c23)cc1`, the IC50 [1] is reported as > 67.6 µM (inactive) and the EC50 [2] is reported as > 67.6 µM (inactive).

In the case of `CC(=O)Nc1sc2c(c1-c1nc3ccccc3s1)CCCNC2`, the IC50 [3] is reported as 15.3 µM (inactive).

With `O=C(NCCN1CCC2(CC1)C(=O)NCN2C(=O)C1CC1)c1ccc2ccccc2c1` the IC50 (Phospholipase D2) was 0.44 µM (active) and the IC50 (Phospholipase D1) was 3.1 µM (active).

With `O=C(/C=C/c1ccc(F)cc1)N1CCN(S(=O)(=O)c2ccc(F)cc2)CC1` the IC50 [4] was 0.0185 µM (active).

In the case of `COc1ccccc1OCCn1c(SC)nc2ccccc21`, the AC50 (cells) is reported as 29.1 µM (active).

For `O=C1C(I)=CC(=C(c2cc(I)c(O)c(I)c2)c2ccccc2C(=O)O)C=C1I` [IODOPHTHALEIN SODIUM], the IC50 [5] was 0.112 µM (active), the IC50 [6] was 3.76 µM (active) and the IC50 [7] was 0.0132 µM (active). For the same molecule, the IC50 [8] was > 10 µM (inactive), the IC50 [9] was 0.054 µM (active) and the IC50 [10] was 0.384 µM (active). For the same molecule, the IC50 [11] was > 10 µM (inactive), the IC50 [12] was 0.0373 µM (active) and the IC50 [13] was 0.312 µM (active).
